In ChEMBL document CHEMBL1132938, “Novel synthetic oleanane and ursane triterpenoids with various enone functionalities in ring A as inhibitors of nitric oxide production in mouse macrophages” (J Med Chem, 2000):

Species on record: Mus musculus
Test: Percent inhibition of nitric oxide production induced by IFN-uM concentration
Assay type: functional
Set-up: concentration or dose not given beside the values

CC1(C)CCC2(C(=O)O)CC[C@]3(C)C(=CC[C@@H]4[C@@]5(C)CC[C@@H](Cl)C(C)(C)[C@@H]5CC[C@]43C)C2C1 (stereo partly specified)
Inhibition: 0%

CC(=O)OC[C@]12CCC(C)(C)CC1C(O)[C@](C)([C@]1(C)CC[C@H]3C(C)(C)[C@@H](OC(C)=O)CC[C@]3(C)[C@H]1CCO)CC2 (stereo partly specified)
Inhibition: 12%

CC(=O)OCC12CCC(C)(C)CC1[C@H]1[C@H](OC(C)=O)C[C@@H]3[C@@]4(C)CC[C@H](OC(C)=O)C(C)(C)[C@@H]4CC[C@@]3(C)[C@]1(C)CC2 (stereo partly specified)
Inhibition: 0%

CC1(C)CC[C@]2(C(=O)O)CC[C@@](C)([C@]3(C)CC[C@H]4C(C)(C)C(=O)CC[C@]4(C)[C@H]3CC(=O)O)C(=O)C2C1 (stereo partly specified)
Inhibition: 28%

COC(=O)C12CCC(C)(C)CC1C1=CC[C@@H]3[C@@]4(C)CC[C@H](OC(C)=O)C(C)(C)[C@@H]4CC[C@@]3(C)[C@]1(C)CC2 (stereo partly specified)
Inhibition: 10%

CC1(C)CCC2(CO)CC[C@]3(C)C(=CC[C@@H]4[C@@]5(C)CC[C@H](O)C(C)(C)[C@@H]5CC[C@]43C)C2C1 (stereo partly specified)
Inhibition: 0%

COC(=O)C12CCC(C)(C)CC1C1=CC[C@@H]3[C@@]4(C)CCC(=O)C(C)(C)[C@@H]4CC[C@@]3(C)[C@]1(C)CC2 (stereo partly specified)
Inhibition: 24%

CC1(C)CCC2(CO)CC[C@]3(C)[C@@H](C2C1)[C@@H](O)C[C@@H]1[C@@]2(C)CC[C@H](O)C(C)(C)[C@@H]2CC[C@]13C (stereo partly specified)
Inhibition: 48%

C=C(C)[C@@H]1CC[C@]2(C)[C@H](CC=C3C4[C@@H](C)[C@H](C)CC[C@]4(C(=O)O)CC[C@]32C)[C@@]1(C)CCC#N (stereo partly specified)
Inhibition: 39%

COC(=O)C12CC[C@@H](C)[C@H](C)C1C1=CC[C@@H]3[C@@]4(C)CCC(=O)C(C)(C)[C@@H]4CC[C@@]3(C)[C@]1(C)CC2 (stereo partly specified)
Inhibition: 16%

COC(=O)C12CCC(C)(C)CC1C1=CC[C@@H]3[C@@]4(C)CCC(=O)NC(C)(C)[C@@H]4CC[C@@]3(C)[C@]1(C)CC2 (stereo partly specified)
Inhibition: 0%

COC(=O)C12CCC(C)(C)CC1[C@H]1C(=O)C[C@@H]3[C@@]4(C)CCC(=O)C(C)(C)[C@@H]4CC[C@@]3(C)[C@]1(C)CC2 (stereo partly specified)
Inhibition: 3%

C[C@@H]1CC[C@]2(C(=O)O)CC[C@]3(C)C(=CC[C@@H]4[C@@]5(C)C[C@@H](Cl)C(=O)C(C)(C)[C@@H]5CC[C@]43C)C2[C@H]1C (stereo partly specified)
Inhibition: 55%

C[C@@H]1CCC2(C(=O)O)CC[C@]3(C)C(=CC[C@@H]4[C@@]5(C)CC[C@@H](O)C(C)(C)[C@@H]5CC[C@]43C)C2[C@H]1C (stereo partly specified)
Inhibition: 48%

CC1(C)CC[C@@]23CC[C@]4(C)[C@](OC2=O)(C(=O)C[C@@H]2[C@@]5(C)CCC(=O)C(C)(C)[C@@H]5CC[C@]24C)C3C1 (stereo partly specified)
Inhibition: 0%

COC(=O)C12CCC(C)(C)CC1C1=CC[C@@H]3[C@@]4(C)CC=CC(C)(C)[C@@H]4CC[C@@]3(C)[C@]1(C)CC2 (stereo partly specified)
Inhibition: 3%

CC1(C)CC[C@@]23CC[C@]4(C)[C@@](OC2O)(C3C1)[C@@H](O)C[C@@H]1[C@@]2(C)CC[C@H](O)C(C)(C)[C@@H]2CC[C@]14C (stereo partly specified)
Inhibition: 21%

C[C@@H]1CCC2(C(=O)O)CC[C@]3(C)C(=CC[C@@H]4[C@@]5(C)CCC(=O)C(C)(C)[C@@H]5CC[C@]43C)C2[C@H]1C (stereo partly specified)
Inhibition: 22%

CC(=O)OC[C@]12CCC(C)(C)CC1C(=O)[C@](C)([C@]1(C)CC[C@H]3C(C)(C)[C@@H](OC(C)=O)CC[C@]3(C)[C@H]1CC(=O)O)CC2 (stereo partly specified)
Inhibition: 52%

CC1(C)CC[C@@]23CC[C@]4(C)[C@@](OC2=O)(C3C1)[C@@H](Br)C[C@@H]1[C@@]2(C)CCC(=O)C(C)(C)[C@@H]2CC[C@]14C (stereo partly specified)
Inhibition: 4%

CC(=O)OCC12CCC(C)(C)CC1[C@H]1[C@@H](O)C[C@@H]3[C@@]4(C)CC[C@H](OC(C)=O)C(C)(C)[C@@H]4CC[C@@]3(C)[C@]1(C)CC2 (stereo partly specified)
Inhibition: 0%

C=C(C)[C@@H]1CC[C@]2(C)[C@H](CC=C3C4CC(C)(C)CC[C@]4(C(=O)O)CC[C@]32C)[C@@]1(C)CCC=O (stereo partly specified)
Inhibition: 22%

C=C(C)[C@@H]1CC[C@]2(C)[C@H](CC=C3C4[C@@H](C)[C@H](C)CC[C@]4(C(=O)O)CC[C@]32C)[C@@]1(C)CCC=O (stereo partly specified)
Inhibition: 55%

CC1(C)CCC2(C(=O)O)CC[C@]3(C)C(=CC[C@@H]4[C@@]5(C)CCC(=O)NC(C)(C)[C@@H]5CC[C@]43C)C2C1 (stereo partly specified)
Inhibition: 51%

COC(=O)C12CCC(C)(C)CC1[C@H]1C(=O)C[C@@H]3[C@@]4(C)CC[C@H](OC(C)=O)C(C)(C)[C@@H]4CC[C@@]3(C)[C@]1(C)CC2 (stereo partly specified)
Inhibition: 0%

COC(=O)C12CC[C@@H](C)[C@H](C)C1C1=CC[C@@H]3[C@@]4(C)CC[C@H](O)C(C)(C)[C@@H]4CC[C@@]3(C)[C@]1(C)CC2 (stereo partly specified)
Inhibition: 0%

CC1(C)CCC2(C=O)CC[C@]3(C)C(=CC[C@@H]4[C@@]5(C)CCC(=O)C(C)(C)[C@@H]5CC[C@]43C)C2C1 (stereo partly specified)
Inhibition: 11%

CC1(C)CCC2(CO)CC[C@]3(C)[C@@](O)(C2C1)[C@@H](O)C[C@@H]1[C@@]2(C)CC[C@H](O)C(C)(C)[C@@H]2CC[C@]13C (stereo partly specified)
Inhibition: 22%

CC(=O)O[C@H]1CC[C@]2(C)[C@H]3CC=C4C5[C@@H](C)[C@H](C)CCC5(C(=O)O)CC[C@@]4(C)[C@]3(C)CC[C@H]2C1(C)C (stereo partly specified)
Inhibition: 0%

C[C@@H]1CCC2(C=O)CC[C@]3(C)C(=CC[C@@H]4[C@@]5(C)CCC(=O)C(C)(C)[C@@H]5CC[C@]43C)C2[C@H]1C (stereo partly specified)
Inhibition: 21%

CC1(C)CCC2(C(=O)O)CC[C@]3(C)C(=CC[C@@H]4[C@@]5(C)CC=CC(C)(C)[C@@H]5CC[C@]43C)C2C1 (stereo partly specified)
Inhibition: 0%

CC(C)C1=C2CC[C@]3(C)[C@H](CC=C4C5CC(C)(C)CCC5(C(=O)O)CC[C@]43C)[C@@]2(C)CC1 (stereo partly specified)
Inhibition: 0%

CC(=O)OCC12CC[C@@H](C)[C@H](C)C1C1=CC[C@@H]3[C@@]4(C)CC[C@H](OC(C)=O)C(C)(C)[C@@H]4CC[C@@]3(C)[C@]1(C)CC2 (stereo partly specified)
Inhibition: 0%

CC1(C)CCC2(C(=O)O)CC[C@]3(C)C(=C2C1)C=C[C@@H]1[C@@]2(C)CCC(=O)C(C)(C)[C@@H]2CC[C@]13C (stereo partly specified)
Inhibition: 47%

C=C(C)[C@@H]1CC[C@]2(C)[C@H](CC=C3C4CC(C)(C)CC[C@]4(C(=O)OC)CC[C@]32C)[C@@]1(C)CCC#N (stereo partly specified)
Inhibition: 21%

COC(=O)C12CCC(C)(C)CC1[C@H]1[C@@H](O)C[C@@H]3[C@@]4(C)CC[C@H](OC(C)=O)C(C)(C)[C@@H]4CC[C@@]3(C)[C@]1(C)CC2 (stereo partly specified)
Inhibition: 0%

COC(=O)C12CC[C@@H](C)[C@H](C)C1C1=CC[C@@H]3[C@@]4(C)CC[C@H](OC(C)=O)C(C)(C)[C@@H]4CC[C@@]3(C)[C@]1(C)CC2 (stereo partly specified)
Inhibition: 15%

CC1(C)CCC2(C(=O)O)CC[C@]3(C)[C@H](C(=O)C[C@@H]4[C@@]5(C)CCC(=O)C(C)(C)[C@@H]5CC[C@]43C)C2C1 (stereo partly specified)
Inhibition: 37%

CC1(C)CCC2(C(=O)O)CC[C@]3(C)C(=CC[C@@H]4[C@@]5(C)CC[C@@H](O)C(C)(C)[C@@H]5CC[C@]43C)C2C1 (stereo partly specified)
Inhibition: 18%

CC1(C)CCC2(C=O)CC[C@]3(C)[C@H](C(=O)C[C@@H]4[C@@]5(C)CCC(=O)C(C)(C)[C@@H]5CC[C@]43C)C2C1 (stereo partly specified)
Inhibition: 38%

C[C@@H]1CCC2(CO)CC[C@]3(C)C(=CC[C@@H]4[C@@]5(C)CC[C@H](O)C(C)(C)[C@@H]5CC[C@]43C)C2[C@H]1C (stereo partly specified)
Inhibition: 8%
